*1 amine or outer side, *2 acyl side, *3 side chain or, on linkers, in order; H or OH if unused. Where a SMILES comes first, the peptide text is derived from it. Bridges are numbered along the chain shown (N, C = ends). [ ]: non-standard residue; d: D form. The star is where a group is joined. ξ: configuration not given here. Phe(4-COOH) = N[C@@H](Cc1ccc(C(=O)O)cc1)C(=O)O; Bip = N[C@@H](Cc1ccc(-c2ccccc2)cc1)C(=O)O; Morpholine(3S-CO) = O=C(O)[C@@H]1COCCN1; Phe(3-Me) = Cc1cccc(C[C@H](N)C(=O)O)c1; Pip(4-aza) = O=C(O)[C@@H]1CNCCN1; 4Pal = N[C@@H](Cc1ccncc1)C(=O)O; X1 = O=C(CN1CCN([*:1])CC1)[*:2]; Cha = N[C@@H](CC1CCCCC1)C(=O)O; Cit = NC(=O)NCCC[C@H](N)C(=O)O; Thr(3ξ) = CC(O)[C@H](N)C(=O)O; 3Abz = Nc1cccc(C(=O)O)c1; 4Abz = Nc1ccc(C(=O)O)cc1; Carboxymethyl = O=C(O)C*; NMeA = CN[C@@H](C)C(=O)O; Orn = NCCC[C@H](N)C(=O)O; Aun = NCCCCCCCCCCC(=O)O; Dab = NCC[C@H](N)C(=O)O; Dap = NC[C@H](N)C(=O)O; AEEA = NCCOCCOCC(=O)O

The assay deals with T1, PD-1/PD-L1 interaction (PE-labeled human PD-L1-Ig binding to Jurkat cell line over-expressing human PD-1) (Homo sapiens, UniProt Q15116).
T1 construct: expressed in transfected cells; host or cells: Jurkat
T1 sequence (Q15116 25-288): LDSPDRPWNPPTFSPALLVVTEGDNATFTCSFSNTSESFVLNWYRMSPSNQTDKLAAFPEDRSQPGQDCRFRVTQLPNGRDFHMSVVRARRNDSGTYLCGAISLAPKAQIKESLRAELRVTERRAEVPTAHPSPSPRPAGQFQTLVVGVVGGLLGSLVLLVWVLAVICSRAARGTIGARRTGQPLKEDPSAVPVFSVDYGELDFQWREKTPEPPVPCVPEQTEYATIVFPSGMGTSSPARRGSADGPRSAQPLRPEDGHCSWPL
In words: Jurkat-PD-1 Cell Binding High-Content Screening Assay (CBA). Particulars: Jurkat-hPD-1 cells, PE-labeled PD-L1-Ig 20 nM final; read-out: Jurkat HPD1 PDL1 IC50. An outline of the steps:
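Cells 8×10^3/well, DMEM + 10% FCS; cpd 2 h, 37 °C; PE–PD-L1-Ig 20 nM final, 1 h; PFA fix + Hoechst 33342, 3× dPBS wash; high-content imager.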
Take `CC(C)C[C@@H]1NC(=O)[C@H](Cc2c[nH]c3ccccc23)NC(=O)[C@H](CC(=O)O)NC(=O)[C@H](Cc2ccncc2)NC(=O)[C@H](Cc2ccc(OCC(=O)O)cc2)NC(=O)CSC[C@@H](C(=O)Nc2ccc(C(=O)NCCCCCCCCCCC(=O)O)cc2)NC(=O)[C@H](CN)NC(=O)[C@H](C(C)C)NC(=O)[C@H](CC2CCCCC2)NC(=O)[C@H](CCN)NC(=O)[C@@H](CC(C)C)NC(=O)[C@H](C)N(C)C(=O)[C@H](C(C)C)NC(=O)[C@H](Cc2ccc(-c3ccccc3)cc2)NC1=O` [Example 1211] ({CH2CO}-Y(Carboxymethyl)[4Pal]DWL[Bip]V[NMeA][dL][Dab][Cha]V[Dap]C[4Abz][Aun]-OH; thioether N-14): the IC50 was 368 nM.
In the case of `CC(C)C[C@@H]1NC(=O)[C@H](Cc2c[nH]c3ccccc23)NC(=O)[C@H](CC(=O)O)NC(=O)[C@H](Cc2ccncc2)NC(=O)[C@H](Cc2ccc(OCC(=O)O)cc2)NC(=O)CSC[C@@H](C(=O)Nc2ccc(C(=O)NCCCCCCCCCCC(=O)O)cc2)NC(=O)[C@H](CCN)NC(=O)[C@H](C(C)C)NC(=O)[C@H](CC2CCCCC2)NC(=O)[C@H](CCN)NC(=O)[C@@H](CC(C)C)NC(=O)[C@H](C)N(C)C(=O)[C@H](C(C)C)NC(=O)[C@H](Cc2ccc(-c3ccccc3)cc2)NC1=O` [Example 1212] ({CH2CO}-Y(Carboxymethyl)[4Pal]DWL[Bip]V[NMeA][dL][Dab][Cha]V[Dab]C[4Abz][Aun]-OH; thioether N-14), the IC50 is 301 nM.
For `CC(C)C[C@@H]1NC(=O)[C@H](Cc2c[nH]c3ccccc23)NC(=O)[C@H](CC(=O)O)NC(=O)[C@H](Cc2ccncc2)NC(=O)[C@H](Cc2ccc(OCC(=O)O)cc2)NC(=O)CSC[C@@H](C(=O)Nc2ccc(C(=O)NCCCCCCCCCCC(=O)O)cc2)NC(=O)[C@H](CCCN)NC(=O)[C@H](C(C)C)NC(=O)[C@H](CC2CCCCC2)NC(=O)[C@H](CCN)NC(=O)[C@@H](CC(C)C)NC(=O)[C@H](C)N(C)C(=O)[C@H](C(C)C)NC(=O)[C@H](Cc2ccc(-c3ccccc3)cc2)NC1=O` [Example 1213] ({CH2CO}-Y(Carboxymethyl)[4Pal]DWL[Bip]V[NMeA][dL][Dab][Cha]V[Orn]C[4Abz][Aun]-OH; thioether N-14), the IC50 came to 276 nM.
Consider `CC(C)C[C@@H]1NC(=O)[C@H](Cc2c[nH]c3ccccc23)NC(=O)[C@H](CC(=O)O)NC(=O)[C@H](Cc2ccncc2)NC(=O)[C@H](Cc2ccc(OCC(=O)O)cc2)NC(=O)CSC[C@@H](C(=O)Nc2ccc(C(=O)NCCCCCCCCCCC(=O)O)cc2)NC(=O)[C@H](CCCNC(=N)N)NC(=O)[C@H](C(C)C)NC(=O)[C@H](CC2CCCCC2)NC(=O)[C@H](CCN)NC(=O)[C@@H](CC(C)C)NC(=O)[C@H](C)N(C)C(=O)[C@H](C(C)C)NC(=O)[C@H](Cc2ccc(-c3ccccc3)cc2)NC1=O` [Example 1214] ({CH2CO}-Y(Carboxymethyl)[4Pal]DWL[Bip]V[NMeA][dL][Dab][Cha]VRC[4Abz][Aun]-OH; thioether N-14), for which the IC50 came to 77.2 nM.
For the compound `CC(C)C[C@@H]1NC(=O)[C@H](Cc2c[nH]c3ccccc23)NC(=O)[C@H](CC(=O)O)NC(=O)[C@H](Cc2ccc(C(=O)O)cc2)NC(=O)[C@H](Cc2ccc(OCC(=O)O)cc2)NC(=O)CSC[C@@H](C(=O)N[C@@H](CCCN)C(=O)NCCOCCOCC(=O)NCCCCCCCCCCC(N)=O)NC(=O)[C@H](CCCNC(N)=O)NC(=O)[C@H](C(C)C)NC(=O)[C@H](CC2CCCCC2)NC(=O)[C@H](CCN)NC(=O)[C@@H](CC(C)C)NC(=O)[C@H](C)N(C)C(=O)[C@H](C(C)C)NC(=O)[C@H](Cc2ccc(-c3ccccc3)cc2)NC1=O` [Example 1215] ({CH2CO}-Y(Carboxymethyl)[Phe(4-COOH)]DWL[Bip]V[NMeA][dL][Dab][Cha]V[Cit]C[Orn][AEEA][Aun]-NH2; thioether N-14), the IC50 worked out at 10.8 nM.
For `CC(C)C[C@@H]1NC(=O)[C@H](Cc2c[nH]c3ccccc23)NC(=O)[C@H](CC(=O)O)NC(=O)[C@H](Cc2ccncc2)NC(=O)[C@H](Cc2ccc(OCC(=O)O)cc2)NC(=O)CSC[C@@H](C(=O)Nc2cccc(C(=O)NCCCCCCCCCCC(=O)O)c2)NC(=O)[C@H](CN)NC(=O)[C@H](C(C)C)NC(=O)[C@H](CC2CCCCC2)NC(=O)[C@H](CCN)NC(=O)[C@@H](CC(C)C)NC(=O)[C@H](C)N(C)C(=O)[C@H](C(C)C)NC(=O)[C@H](Cc2ccc(-c3ccccc3)cc2)NC1=O` [Example 1216] ({CH2CO}-Y(Carboxymethyl)[4Pal]DWL[Bip]V[NMeA][dL][Dab][Cha]V[Dap]C[3Abz][Aun]-OH; thioether N-14), the IC50 turned out to be 265 nM.
To `CC(C)C[C@@H]1NC(=O)[C@H](Cc2c[nH]c3ccccc23)NC(=O)[C@H](CC(=O)O)NC(=O)[C@H](Cc2ccncc2)NC(=O)[C@H](Cc2ccc(OCC(=O)O)cc2)NC(=O)CSC[C@@H](C(=O)Nc2cccc(C(=O)NCCCCCCCCCCC(=O)O)c2)NC(=O)[C@H](CCN)NC(=O)[C@H](C(C)C)NC(=O)[C@H](CC2CCCCC2)NC(=O)[C@H](CCN)NC(=O)[C@@H](CC(C)C)NC(=O)[C@H](C)N(C)C(=O)[C@H](C(C)C)NC(=O)[C@H](Cc2ccc(-c3ccccc3)cc2)NC1=O` [Example 1217] ({CH2CO}-Y(Carboxymethyl)[4Pal]DWL[Bip]V[NMeA][dL][Dab][Cha]V[Dab]C[3Abz][Aun]-OH; thioether N-14) belongs 238 nM; to `CC(C)C[C@@H]1NC(=O)[C@H](Cc2c[nH]c3ccccc23)NC(=O)[C@H](CC(=O)O)NC(=O)[C@H](Cc2ccncc2)NC(=O)[C@H](Cc2ccc(OCC(=O)O)cc2)NC(=O)CSC[C@@H](C(=O)N2CCN(CC(=O)NCCCCCCCCCCC(=O)O)CC2)NC(=O)[C@H](C(C)O)NC(=O)[C@H](C(C)C)NC(=O)[C@H](CC2CCCCC2)NC(=O)[C@H](CCN)NC(=O)[C@@H](CC(C)C)NC(=O)[C@H](C)N(C)C(=O)[C@H](C(C)C)NC(=O)[C@H](Cc2ccc(-c3ccccc3)cc2)NC1=O` (stereo partly drawn) [Example 1219] ({CH2CO}-Y(Carboxymethyl)[4Pal]DWL[Bip]V[NMeA][dL][Dab][Cha]V[Thr(3ξ)]C[X1][Aun]-OH; thioether N-14), 202 nM.
For `CC(C)C[C@@H]1NC(=O)[C@H](Cc2c[nH]c3ccccc23)NC(=O)[C@H](CC(=O)O)NC(=O)[C@H](Cc2ccncc2)NC(=O)[C@H](Cc2ccc(OCC(=O)O)cc2)NC(=O)CSC[C@@H](C(=O)N2CCN(CC(=O)NCCCCCCCCCCC(=O)O)CC2)NC(=O)[C@H](CCCNC(N)=O)NC(=O)[C@H](C(C)C)NC(=O)[C@H](CC2CCCCC2)NC(=O)[C@H](CCN)NC(=O)[C@@H](CC(C)C)NC(=O)[C@H](C)N(C)C(=O)[C@H](C(C)C)NC(=O)[C@H](Cc2ccc(-c3ccccc3)cc2)NC1=O` [Example 1220] ({CH2CO}-Y(Carboxymethyl)[4Pal]DWL[Bip]V[NMeA][dL][Dab][Cha]V[Cit]C[X1][Aun]-OH; thioether N-14), the IC50 was 182 nM.
Turning to `CC(C)C[C@@H]1NC(=O)[C@H](Cc2c[nH]c3ccccc23)NC(=O)[C@H](CC(=O)O)NC(=O)[C@H](Cc2ccncc2)NC(=O)[C@H](Cc2ccc(OCC(=O)O)cc2)NC(=O)CSC[C@@H](C(=O)N2CCNC[C@H]2C(=O)NCCCCCCCCCCC(=O)O)NC(=O)[C@H](C(C)O)NC(=O)[C@H](C(C)C)NC(=O)[C@H](CC2CCCCC2)NC(=O)[C@H](CCN)NC(=O)[C@@H](CC(C)C)NC(=O)[C@H](C)N(C)C(=O)[C@H](C(C)C)NC(=O)[C@H](Cc2ccc(-c3ccccc3)cc2)NC1=O` (stereo partly drawn) [Example 1221] ({CH2CO}-Y(Carboxymethyl)[4Pal]DWL[Bip]V[NMeA][dL][Dab][Cha]V[Thr(3ξ)]C[Pip(4-aza)][Aun]-OH; thioether N-14), the IC50 came to 121 nM.
For `CC(C)C[C@@H]1NC(=O)[C@H](Cc2c[nH]c3ccccc23)NC(=O)[C@H](CC(=O)O)NC(=O)[C@H](Cc2ccncc2)NC(=O)[C@H](Cc2ccc(OCC(=O)O)cc2)NC(=O)CSC[C@@H](C(=O)N2CCOC[C@H]2C(=O)NCCCCCCCCCCC(=O)O)NC(=O)[C@H](C(C)O)NC(=O)[C@H](C(C)C)NC(=O)[C@H](CC2CCCCC2)NC(=O)[C@H](CCN)NC(=O)[C@@H](CC(C)C)NC(=O)[C@H](C)N(C)C(=O)[C@H](C(C)C)NC(=O)[C@H](Cc2ccc(-c3ccccc3)cc2)NC1=O` (stereo partly drawn) [Example 1222] ({CH2CO}-Y(Carboxymethyl)[4Pal]DWL[Bip]V[NMeA][dL][Dab][Cha]V[Thr(3ξ)]C[Morpholine(3S-CO)][Aun]-OH; thioether N-14), the IC50 came out at 591 nM.
Turning to `CC(C)C[C@@H]1NC(=O)[C@H](Cc2c[nH]c3ccccc23)NC(=O)[C@H](CC(=O)O)NC(=O)[C@H](Cc2ccncc2)NC(=O)[C@H](Cc2ccc(OCC(=O)O)cc2)NC(=O)CSC[C@@H](C(=O)N2CCOC[C@H]2C(=O)NCCCCCCCCCCC(=O)O)NC(=O)[C@H](CCCNC(N)=O)NC(=O)[C@H](C(C)C)NC(=O)[C@H](CC2CCCCC2)NC(=O)[C@H](CCN)NC(=O)[C@@H](CC(C)C)NC(=O)[C@H](C)N(C)C(=O)[C@H](C(C)C)NC(=O)[C@H](Cc2ccc(-c3ccccc3)cc2)NC1=O` [Example 1223] ({CH2CO}-Y(Carboxymethyl)[4Pal]DWL[Bip]V[NMeA][dL][Dab][Cha]V[Cit]C[Morpholine(3S-CO)][Aun]-OH; thioether N-14), the IC50 turned out to be 420 nM.
To `Cc1cccc(C[C@@H]2NC(=O)[C@H](CC(=O)O)NC(=O)[C@H](Cc3ccc(OCC(=O)O)cc3)NC(=O)[C@H](CCCNC(=N)N)NC(=O)CSC[C@@H](C(=O)N[C@@H](CCCCN)C(=O)NCCCCCCCCCCC(=O)O)NC(=O)[C@H]([C@@H](C)O)NC(=O)[C@H](C(C)C)NC(=O)[C@H](CC3CCCCC3)NC(=O)[C@H](CCN)NC(=O)[C@@H](CC(C)C)NC(=O)[C@H](C)N(C)C(=O)[C@H](Cc3ccc(OCC(=O)O)cc3)NC(=O)[C@H](Cc3ccc(-c4ccccc4)cc3)NC(=O)[C@H](Cc3ccc(OCC(=O)O)cc3)NC2=O)c1` [Example 1224] ({CH2CO}-RY(Carboxymethyl)D[Phe(3-Me)]Y(Carboxymethyl)[Bip]Y(Carboxymethyl)[NMeA][dL][Dab][Cha]VTCK[Aun]-OH; thioether N-14) belongs 27.9 nM.

Broadly, the IC50 is the point on the concentration scale where inhibition reaches its midpoint.

Source of the values: patent publication US20260070945A1, “MACROCYCLIC IMMUNOMODULATORS” (Bristol-Myers Squibb Company, priority 2022, published 2026).
